Numbered stars: 1 amine (or outer) side, 2 acyl side, 3 side chain; on linkers, the order of the positions; unused ones are H or OH. Bridge positions count the residues as written; N and C are the ends. Square brackets hold non-standard residues; d marks the D form. Peptide text beside a SMILES is read from it. * marks the point of attachment. hPhe(3,5-F2-4-CF3) = N[C@@H](CCc1cc(F)c(C(F)(F)F)c(F)c1)C(=O)O; hPhe(3-Cl-4-CF3) = N[C@@H](CCc1ccc(C(F)(F)F)c(Cl)c1)C(=O)O; hPhe(3-F,4-CF3) = N[C@@H](CCc1ccc(C(F)(F)F)c(F)c1)C(=O)O; NEtPhe(4-CF3) = CCN[C@@H](Cc1ccc(C(F)(F)F)cc1)C(=O)O; NMePhe(4-CF3) = CN[C@@H](Cc1ccc(C(F)(F)F)cc1)C(=O)O; hPhe(4-CF3) = N[C@@H](CCc1ccc(C(F)(F)F)cc1)C(=O)O; NMePhe(4-Cl) = CN[C@@H](Cc1ccc(Cl)cc1)C(=O)O; NMePhe(4-F) = CN[C@@H](Cc1ccc(F)cc1)C(=O)O; NMedβ3hAla = C[C@H](CC(=O)[*:2])N(C)[*:1]; NMeGly(cPent) = CN[C@H](C(=O)O)C1CCCC1; Pro(4,4-F2) = O=C(O)[C@@H]1CC(F)(F)CN1; NMeCha = CN[C@@H](CC1CCCCC1)C(=O)O; Hyp = O=C(O)[C@@H]1C[C@@H](O)CN1; NMeChg = CN[C@H](C(=O)O)C1CCCCC1; NMeF = CN[C@@H](Cc1ccccc1)C(=O)O; N(CH2CH2)2CF2 = FC1(F)CCN(*)CC1; NMeD = CN[C@@H](CC(=O)O)C(=O)O; NMeL = CN[C@@H](CC(C)C)C(=O)O; NMeV = CN[C@H](C(=O)O)C(C)C; Trifluoroethyl = FC(F)(F)C*; d(β3hA) = C[C@@H](N)CC(=O)O; NMeS = CN[C@@H](CO)C(=O)O; NMeA = CN[C@@H](C)C(=O)O; NMeAib = CNC(C)(C)C(=O)O; Piperidide = C1CCN(*)CC1; Ac5c = NC1(C(=O)O)CCCC1; Aze = O=C(O)[C@@H]1CCN1; Ac4c = NC1(C(=O)O)CCC1; Sar = CNCC(=O)O; Propyl = CCC*

For this test, the target named is protein-protein interaction between Kras and SOS1 (biotin-tagged human Kras loaded with GDP, His-tagged human SOS1) (Homo sapiens (Human), UniProt P01116, G12D). Put plainly: Protein-protein interaction inhibition between Kras and SOS1 (KrasG12D-SOS PPI) using AlphaScreen.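 Note: kras produced in E. coli, Ni-coupled donor beads and streptavidin acceptor beads, excitation 680 nm with emission detected at 520–620 nm via singlet oxygen transfer.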 The format is biochemical. The conditions noted are these: AlphaScreen; biotin-tagged human Kras loaded with GDP, His-tagged human SOS1; read-out: KRAS G12D-SOS PPI IC50.
For the molecule `CC[C@H](C)[C@@H]1NC(=O)[C@H](CC(C)C)N(C)C(=O)C[C@@H](C)N(C)C(=O)[C@H](C2CCCCC2)N(C)C(=O)C2(CCCC2)NC(=O)[C@@H]2CC(F)(F)CN2C(=O)[C@H](CCc2ccc(C(F)(F)F)c(Cl)c2)NC(=O)CN(C)C(=O)[C@H](Cc2ccc(C(F)(F)F)cc2)N(C)C(=O)[C@@H]2CCN2C(=O)[C@H](C)N(C)C1=O` [Compound 319] (cyclo([Ac5c][NMeChg][NMedβ3hAla][NMeL]I[NMeA][Aze][NMePhe(4-CF3)][Sar][hPhe(3-Cl-4-CF3)][Pro(4,4-F2)])), the IC50 amounted to 0.0082 µM.
For `CCO[C@@H]1C[C@H]2C(=O)N(C)[C@@H](Cc3ccccc3)C(=O)N(C)[C@@H](CC(C)C)C(=O)N[C@H](C)CC(=O)N(C)[C@@H](C)C(=O)N[C@@H]([C@@H](C)CC)C(=O)N(C)CC(=O)N(C)CC(=O)N(C)[C@@H](Cc3ccc(Cl)cc3)C(=O)N(C)CC(=O)N[C@@H](CCc3ccc(C(F)(F)F)cc3)C(=O)N2C1` [Compound 322] (cyclo([Hyp](Et)[NMeF][NMeL][d(β3hA)][NMeA]I[Sar][Sar][NMePhe(4-Cl)][Sar][hPhe(4-CF3)])) the value was 0.031 µM; for `CC[C@H](C)[C@@H]1NC(=O)[C@H](C)N(C)C(=O)C[C@@H](C)N(C)C(=O)[C@H](CC(C)C)NC(=O)C(C)(C)N(C)C(=O)[C@H](CC(C)C)NC(=O)[C@H](CCc2ccc(C(F)(F)F)cc2)NC(=O)CN(C)C(=O)[C@H](Cc2ccc(Cl)cc2)N(C)C(=O)CN(C)C(=O)CN(C)C1=O` [Compound 323] (cyclo(I[Sar][Sar][NMePhe(4-Cl)][Sar][hPhe(4-CF3)]L[NMeAib]L[NMedβ3hAla][NMeA])), 0.14 µM.
The result for `CC[C@H](C)[C@@H]1NC(=O)[C@H](C)N(C)C(=O)C[C@@H](C)N(C)C(=O)[C@H](C(C)C)N(C)C(=O)C(C)(C)N(C)C(=O)[C@@H]2CCCN2C(=O)[C@H](CCc2ccc(C(F)(F)F)c(Cl)c2)NC(=O)CN(C)C(=O)[C@H](CC2CCCCC2)N(C)C(=O)[C@@H]2CCN2C(=O)[C@H](C)N(C)C1=O` [Compound 341] (cyclo([Aze][NMeCha][Sar][hPhe(3-Cl-4-CF3)]P[NMeAib][NMeV][NMedβ3hAla][NMeA]I[NMeA])) reads 0.0029 µM; that for `CC[C@H](C)[C@@H]1NC(=O)[C@H](CC(C)C)N(C)C(=O)C[C@@H](C)N(C)C(=O)[C@H](C2CCCCC2)N(C)C(=O)C2(CCC2)NC(=O)[C@@H]2CC(F)(F)CN2C(=O)[C@H](CCc2ccc(C(F)(F)F)c(Cl)c2)NC(=O)CN(C)C(=O)[C@H](Cc2ccc(C(F)(F)F)cc2)N(CC)C(=O)[C@@H]2CCN2C(=O)[C@H](C)N(C)C1=O` [Compound 345] (cyclo([Ac4c][NMeChg][NMedβ3hAla][NMeL]I[NMeA][Aze][NEtPhe(4-CF3)][Sar][hPhe(3-Cl-4-CF3)][Pro(4,4-F2)])), 0.058 µM; that for `CC[C@H](C)[C@@H]1NC(=O)[C@H](CC(C)C)N(C)C(=O)C[C@@H](C)N(C)C(=O)[C@H](C2CCCCC2)N(C)C(=O)C2(CCCC2)NC(=O)[C@@H]2CCCN2C(=O)[C@H](CCc2ccc(C(F)(F)F)c(Cl)c2)NC(=O)CN(C)C(=O)[C@H](Cc2ccc(C(F)(F)F)cc2)N(C)C(=O)[C@@H]2CCN2C(=O)[C@H](C)N(C)C1=O` [Compound 348] (cyclo([Ac5c][NMeChg][NMedβ3hAla][NMeL]I[NMeA][Aze][NMePhe(4-CF3)][Sar][hPhe(3-Cl-4-CF3)]P)), 0.006 µM.
Regarding `CC[C@H](C)[C@@H]1NC(=O)[C@H](CC(C)C)N(C)C(=O)C[C@@H](C)N(C)C(=O)[C@H](C(C)C)N(C)C(=O)C2(CCCC2)NC(=O)[C@H](CC(=O)N2CCC(F)(F)CC2)N(C)C(=O)[C@H](CCc2ccc(C(F)(F)F)c(Cl)c2)NC(=O)CN(C)C(=O)[C@H](CC2CCCCC2)N(C)C(=O)CN(C)C(=O)CN(C)C1=O` [Compound 350] (cyclo([Ac5c][NMeV][NMedβ3hAla][NMeL]I[Sar][Sar][NMeCha][Sar][hPhe(3-Cl-4-CF3)][NMeD](N(CH2CH2)2CF2))), the IC50 amounted to 0.064 µM.
The result for `CCO[C@@H]1C[C@H]2C(=O)NC3(CCC3)C(=O)N(C)[C@@H](C3CCCCC3)C(=O)N(C)[C@H](C)CC(=O)N(C)[C@@H](CC(C)C)C(=O)N[C@@H]([C@@H](C)CC)C(=O)N(C)[C@@H](C)C(=O)N3CC[C@H]3C(=O)N(C)[C@@H](Cc3ccc(C(F)(F)F)cc3)C(=O)N(C)CC(=O)N[C@@H](CCc3cc(F)c(C(F)(F)F)c(F)c3)C(=O)N2C1` [Compound 365] (cyclo([Ac4c][NMeChg][NMedβ3hAla][NMeL]I[NMeA][Aze][NMePhe(4-CF3)][Sar][hPhe(3,5-F2-4-CF3)][Hyp](Et))) reads 0.038 µM; that for `CCCOC[C@H]1C(=O)N(C)CC(=O)N[C@@H](CCc2ccc(C(F)(F)F)c(Cl)c2)C(=O)N2CCC[C@H]2C(=O)NC2(CCCC2)C(=O)N(C)[C@@H](C2CCCC2)C(=O)N(C)[C@H](C)CC(=O)N(C)[C@@H](CC(C)C)C(=O)N[C@@H]([C@@H](C)CC)C(=O)N(C)[C@@H](C)C(=O)N2CC[C@H]2C(=O)N1C` [Compound 366] (cyclo([Ac5c][NMeGly(cPent)][NMedβ3hAla][NMeL]I[NMeA][Aze][NMeS](Propyl)[Sar][hPhe(3-Cl-4-CF3)]P)), 0.004 µM; that for `CC[C@H](C)[C@@H]1NC(=O)[C@H](CC(C)C)N(C)C(=O)C[C@@H](C)N(C)C(=O)[C@H](C2CCCCC2)N(C)C(=O)C2(CCC2)NC(=O)[C@@H]2CC(F)(F)CN2C(=O)[C@H](CCc2cc(F)c(C(F)(F)F)c(F)c2)NC(=O)CN(C)C(=O)[C@H](Cc2ccc(C(F)(F)F)cc2)N(CC)C(=O)[C@@H]2CCN2C(=O)[C@H](C)N(C)C1=O` [Compound 377] (cyclo([Ac4c][NMeChg][NMedβ3hAla][NMeL]I[NMeA][Aze][NEtPhe(4-CF3)][Sar][hPhe(3,5-F2-4-CF3)][Pro(4,4-F2)])), 0.024 µM.
For `CC[C@H](C)[C@@H]1NC(=O)[C@H](CC(C)C)N(C)C(=O)C[C@@H](C)N(C)C(=O)[C@H](C2CCCC2)N(C)C(=O)C2(CCCC2)NC(=O)[C@@H]2CCCN2C(=O)[C@H](CCc2ccc(C(F)(F)F)c(F)c2)NC(=O)CN(C)C(=O)[C@H](C2CCCC2)N(C)C(=O)[C@@H]2CCN2C(=O)[C@H](C)N(C)C1=O` [Compound 386] (cyclo([Ac5c][NMeGly(cPent)][NMedβ3hAla][NMeL]I[NMeA][Aze][NMeGly(cPent)][Sar][hPhe(3-F,4-CF3)]P)) the value was 0.01 µM.
For `CC[C@H](C)[C@@H]1NC(=O)[C@H](COCC(F)(F)F)N(C)C(=O)C[C@@H](C(=O)N2CCCCC2)N(C)C(=O)[C@H](C(C)C)N(C)C(=O)C2(CCCC2)NC(=O)[C@@H]2CCCN2C(=O)[C@H](CCc2ccc(C(F)(F)F)c(Cl)c2)NC(=O)CN(C)C(=O)[C@H](CC2CCCCC2)N(C)C(=O)[C@@H]2CCN2C(=O)[C@H](C)N(C)C1=O` [Compound 387] ([NMeS](Trifluoroethyl)I[NMeA][Aze][NMeCha][Sar][hPhe(3-Cl-4-CF3)]P[Ac5c][NMeV][NMeD]-Piperidide; lactam N-11) the value was 0.0042 µM; for `CC[C@H](C)[C@@H]1NC(=O)[C@H](CC(C)C)N(C)C(=O)C[C@@H](C(=O)N2CCCCC2)N(C)C(=O)[C@H](C2CCCC2)N(C)C(=O)C2(CCCC2)NC(=O)[C@@H]2CCCN2C(=O)[C@H](CCc2ccc(C(F)(F)F)c(Cl)c2)NC(=O)CN(C)C(=O)[C@H](Cc2ccc(F)cc2)N(C)C(=O)[C@@H]2CCN2C(=O)[C@H](C)N(C)C1=O` [Compound 388] ([NMeL]I[NMeA][Aze][NMePhe(4-F)][Sar][hPhe(3-Cl-4-CF3)]P[Ac5c][NMeGly(cPent)][NMeD]-Piperidide; lactam N-11), 0.0005 µM.

These data come from patent US20240148821A1, “PHARMACEUTICAL USE OF CYCLIC PEPTIDE COMPOUND” (CHUGAI SEIYAKU KABUSHIKI KAISHA, priority 2021, published 2024).
